The values below come from PMC11250030, “Strategic Single-Residue Substitution in the Antimicrobial Peptide Esc(1–21) Confers Activity against Staphylococcus aureus, Including Drug-Resistant and Biofilm Phenotype” (ACS Infectious Diseases, 2024).

≈ marks a conversion by molar mass, not a printed value. Where two headings read alike, the source gives them in different places. Where a SMILES comes first, the peptide text is derived from it. [ ]: non-standard residue; d: D form. Aib = CC(C)(N)C(=O)O

For one data set, the system named is A. baumannii ATCC 19606. How it is done:
(§1) Antimicrobial susceptibility was evaluated by the broth microdilution assay to determine the MIC as already described by Buommino et al.[71] The bacterial suspension in Muller Hinton (MH) at a concentration of 2 × 10^6 cell/mL in the mid-log phase was prepared. Aliquots of 50 μL of the bacterial suspension were added to 50 μL of MH containing serial 2-fold dilutions of the peptides (from 100 to 0.78 μM) that were previously prepared in a 96-well plate. […] Each measurement was performed in triplicate. MICs were obtained from three identical readings of four independent experiments. The antibiofilm activity of the tested peptides was evaluated as reported by Casciaro et al.[72] Microbial culture was grown at 37 °C until it reached an optical density (OD) of 0.8 (λ = 590 nm), and then it was diluted to a cell density of 1 × 10^6 colony-forming units (CFUs)/mL.

The next data set has as its system S. aureus MDR #1. How it is done: as §1
In the next data set the test system is S. aureus MDR #3. How it is done: as §1
A further data set has as its system S. aureus MDR #2. How it is done:
as §1

The test system of data set [1] is S. epidermidis ATCC 12228. How it is done: as §1
The test system of another data set is S. aureus MDR #4. How it is done:
as §1

A further data set deals with S. aureus ATCC 25923. How it is done: as §1
A further data set has as its system P. aeruginosa ATCC 25853. How it is done:
as §1

For the next data set, the system named is E. coli ATCC 25922. How it is done:
as §1

In another data set the test system is HaCaT cells. More on the design: method as in PMID 26162435. The note with it: previously described; cited from earlier work.
A further data set in a line: in vitro. The format is in vitro ADME, bovine. The note with it: serum. How it is done: The proteolytic stability of peptide 2 was evaluated in bovine serum (ThermoFisher Scientific, Milan, Italy). Peptide 2 was dissolved in sterile water (200 μM) and incubated with 50% bovine serum at 37 °C. The reaction mixture was incubated at different time intervals (1, 3, 4, 5, 16, and 24 h). An aliquot of the mixture was taken at each pre-established time point and MeCN was added to precipitate serum proteins. Then, the mixture was cooled to 4 °C, centrifuged for 15 min ([…]), and then the supernatant was checked by HPLC using a Phenomenex Jupiter column (4 μm Proteo 90 Å 250 × 21.20 mm) with a linear gradient of MeCN (0.1% TFA) and H2O (0.1% TFA) from 10 to 90% in 20 min and with a flow rate of 1 mL/min.[73] The percentage of the nondegraded peptide was calculated by integrating the peak area of each HPLC chromatogram. Data points are the mean ± SD of three different experiments.

Setting [2] is: MDR clinical isolate 13164462, broth microdilution, 16–18 h at 37 °C, three identical readings of four independent experiments.
Where [3] appears, read: MDR clinical isolate 13667073, broth microdilution, 16–18 h at 37 °C, three identical readings of four independent experiments.

Regarding `CC[C@H](C)[C@H](NC(=O)CN)C(=O)N[C@@H](Cc1ccccc1)C(=O)N[C@@H](CO)C(=O)N[C@@H](CCCCN)C(=O)N[C@@H](CC(C)C)C(=O)N[C@@H](C)C(=O)NCC(=O)N[C@@H](CCCCN)C(=O)N[C@@H](CCCCN)C(=O)N[C@H](C(=O)N[C@@H](CCCCN)C(=O)N[C@@H](CC(N)=O)C(=O)N[C@@H](CC(C)C)C(=O)N[C@@H](CC(C)C)C(=O)N[C@H](C(=O)N[C@@H](CO)C(=O)NCC(=O)N[C@@H](CC(C)C)C(=O)N[C@@H](CCCCN)C(=O)NCC(N)=O)[C@@H](C)CC)[C@@H](C)CC` [peptide 1] (H-GIFSKLAGKKIKNLLISGLKG-NH2), the MIC with A. baumannii ATCC 19606 was 1.56 µM (≈ 3.41 µg/mL); against S. aureus MDR #1 (setting [2]), greater than 100 µM; against S. aureus MDR #3 (setting [3]), 100 µM (≈ 218 µg/mL); in the data set on S. aureus MDR #2 (MDR #2), 100 µM (≈ 218 µg/mL); in [1], 3.12 µM (≈ 6.82 µg/mL); with S. aureus MDR #4, greater than 100 µM. Moreover, the minimum inhibitory concentration (MIC) is greater than 100 µM in the data set on S. aureus ATCC 25923 (ATCC 25923), 3.12 µM (≈ 6.82 µg/mL) in the data set with P. aeruginosa ATCC 25853 and 1.56 µM (≈ 3.41 µg/mL) in the data set on E. coli ATCC 25922. Further, the “lethal dose causing 50% killing (LD50)” value in the data set on HaCaT cells is greater than 50 µM.
For `CC[C@H](C)[C@H](NC(=O)CN)C(=O)N[C@@H](Cc1ccccc1)C(=O)N[C@@H](CO)C(=O)N[C@@H](CCCCN)C(=O)N[C@@H](CC(C)C)C(=O)N[C@@H](C)C(=O)N1CCC[C@@H]1C(=O)N[C@@H](CCCCN)C(=O)N[C@@H](CCCCN)C(=O)N[C@H](C(=O)N[C@@H](CCCCN)C(=O)N[C@@H](CC(N)=O)C(=O)N[C@@H](CC(C)C)C(=O)N[C@@H](CC(C)C)C(=O)N[C@H](C(=O)N[C@@H](CO)C(=O)NCC(=O)N[C@@H](CC(C)C)C(=O)N[C@@H](CCCCN)C(=O)NCC(N)=O)[C@@H](C)CC)[C@@H](C)CC` [peptide 4] (H-GIFSKLA[dP]KKIKNLLISGLKG-NH2), the MIC against A. baumannii ATCC 19606 is 12.5 µM (≈ 27.8 µg/mL); in the data set on S. aureus MDR #1 (MDR #1) it was greater than 100 µM; against S. aureus MDR #3 (MDR #3), greater than 100 µM; in the data set with S. aureus MDR #2 (MDR #2) it was greater than 100 µM; in data set [1] it was 12.5 µM (≈ 27.8 µg/mL); against S. aureus MDR #4, greater than 100 µM. For the same compound, the MIC in the data set on S. aureus ATCC 25923 (ATCC 25923) is greater than 100 µM; in the data set with P. aeruginosa ATCC 25853, 25 µM (≈ 55.6 µg/mL); in the data set on E. coli ATCC 25922, 6.25 µM (≈ 13.9 µg/mL).
`CC[C@H](C)[C@H](NC(=O)CN)C(=O)N[C@@H](Cc1ccccc1)C(=O)N[C@@H](CO)C(=O)N[C@@H](CCCCN)C(=O)N[C@@H](CC(C)C)C(=O)N[C@@H](C)C(=O)N1CCC[C@H]1C(=O)N[C@@H](CCCCN)C(=O)N[C@@H](CCCCN)C(=O)N[C@H](C(=O)N[C@@H](CCCCN)C(=O)N[C@@H](CC(N)=O)C(=O)N[C@@H](CC(C)C)C(=O)N[C@@H](CC(C)C)C(=O)N[C@H](C(=O)N[C@@H](CO)C(=O)NCC(=O)N[C@@H](CC(C)C)C(=O)N[C@@H](CCCCN)C(=O)NCC(N)=O)[C@@H](C)CC)[C@@H](C)CC` [peptide 3] (H-GIFSKLAPKKIKNLLISGLKG-NH2): the MIC against A. baumannii ATCC 19606 was 1.56 µM (≈ 3.47 µg/mL); with S. aureus MDR #1 (MDR #1), greater than 100 µM; with S. aureus MDR #3 (MDR #3), greater than 100 µM; with S. aureus MDR #2 (MDR #2), greater than 100 µM; in [1] it was 6.25 µM (≈ 13.9 µg/mL); in the data set with S. aureus MDR #4, greater than 100 µM. The MIC in the data set with S. aureus ATCC 25923 (ATCC 25923) was greater than 100 µM; against P. aeruginosa ATCC 25853, 6.25 µM (≈ 13.9 µg/mL); in the data set with E. coli ATCC 25922 it was 3.12 µM (≈ 6.94 µg/mL).
As for `CC[C@H](C)[C@H](NC(=O)CN)C(=O)N[C@@H](Cc1ccccc1)C(=O)N[C@@H](CO)C(=O)N[C@@H](CCCCN)C(=O)N[C@@H](CC(C)C)C(=O)N[C@@H](C)C(=O)NC(C)(C)C(=O)N[C@@H](CCCCN)C(=O)N[C@@H](CCCCN)C(=O)N[C@H](C(=O)N[C@@H](CCCCN)C(=O)N[C@@H](CC(N)=O)C(=O)N[C@@H](CC(C)C)C(=O)N[C@@H](CC(C)C)C(=O)N[C@H](C(=O)N[C@@H](CO)C(=O)NCC(=O)N[C@@H](CC(C)C)C(=O)N[C@@H](CCCCN)C(=O)NCC(N)=O)[C@@H](C)CC)[C@@H](C)CC` [peptide 2] (H-GIFSKLA[Aib]KKIKNLLISGLKG-NH2), the MIC with A. baumannii ATCC 19606 turned out to be 0.78 µM (≈ 1.73 µg/mL); in the data set on S. aureus MDR #1 (setting [2]), 12.5 µM (≈ 27.7 µg/mL); with S. aureus MDR #3 (setting [3]), 12.5 µM (≈ 27.7 µg/mL); against S. aureus MDR #2 (MDR clinical isolate 13165968, broth microdilution, 16–18 h at 37 °C, three identical readings of four independent experiments) it was 12.5 µM (≈ 27.7 µg/mL); in data set [1], 0.78 µM (≈ 1.73 µg/mL); in the data set with S. aureus MDR #4, 6.25 µM (≈ 13.8 µg/mL). Moreover, the MIC in the data set on S. aureus ATCC 25923 (broth microdilution, Muller Hinton, 16–18 h at 37 °C, three identical readings of four independent experiments) turned out to be 12.5 µM (≈ 27.7 µg/mL); in the data set on P. aeruginosa ATCC 25853 it was 3.12 µM (≈ 6.9 µg/mL); against E. coli ATCC 25922, 0.78 µM (≈ 1.73 µg/mL). Further, the amount remaining at 1 h, 200 μM in “in vitro” is roughly 90%. The compound further showed a fraction remaining at 3 h, 200 μM in the data set “in vitro” of roughly 75%. Further, the share remaining at 4 h, 200 μM in “in vitro” is roughly 65%. The share remaining at 5 h, 200 μM in the data set “in vitro” was roughly 40%. Besides, in the data set “in vitro”, the amount remaining at 16 h, 200 μM was roughly 40%. Moreover, the share remaining at 24 h, 200 μM in the data set “in vitro” was roughly 15%.
